Data set [1] deals with bovine serum albumin (BSA) glycation by MGO (Bos taurus, UniProt P02769). As to the kind of experiment: Anti-glycation inhibition (BSA-MGO fluorescence). Format: biochemical. The settings on record: 37 °C, 9 days; for IC50: read-out: IC50 ± S.E. (antiglycation). As for the experimental part: After incubation, glycation of protein was measured using fluorescence (emission, 440 nm; excitation, 330 nm), against a blank, and using a microtiter plate spectrophotometer (Spectra Max, Molecular Devices, Sunnyvale, CA).

A further data set concerns the target T1, mushroom tyrosinase (Agaricus bisporus, UniProt C7FF04).
T1 construct: purchased Sigma-Aldrich T3824; host or cells: mushroom (natural source)
As to the kind of experiment: Tyrosinase inhibition (L-DOPA, 96-well). The class given is biochemical. The settings on record: L-DOPA substrate, read-out: IC50 ± S.E. (tyrosinase).

Data set [2] deals with phosphodiesterase I from Crotalus adamanteus venom (Crotalus adamanteus, UniProt J3SEZ3). The data set can be described thus: biochemical.
Data set [3] has as its target Jack bean (Canavalia ensiformis) urease (Canavalia ensiformis, UniProt P07374). As to the kind of experiment: biochemical.

Read-outs that look alike come from different tables or passages of the source.

Chain of bovine serum albumin (BSA) glycation by MGO (P02769 25-607): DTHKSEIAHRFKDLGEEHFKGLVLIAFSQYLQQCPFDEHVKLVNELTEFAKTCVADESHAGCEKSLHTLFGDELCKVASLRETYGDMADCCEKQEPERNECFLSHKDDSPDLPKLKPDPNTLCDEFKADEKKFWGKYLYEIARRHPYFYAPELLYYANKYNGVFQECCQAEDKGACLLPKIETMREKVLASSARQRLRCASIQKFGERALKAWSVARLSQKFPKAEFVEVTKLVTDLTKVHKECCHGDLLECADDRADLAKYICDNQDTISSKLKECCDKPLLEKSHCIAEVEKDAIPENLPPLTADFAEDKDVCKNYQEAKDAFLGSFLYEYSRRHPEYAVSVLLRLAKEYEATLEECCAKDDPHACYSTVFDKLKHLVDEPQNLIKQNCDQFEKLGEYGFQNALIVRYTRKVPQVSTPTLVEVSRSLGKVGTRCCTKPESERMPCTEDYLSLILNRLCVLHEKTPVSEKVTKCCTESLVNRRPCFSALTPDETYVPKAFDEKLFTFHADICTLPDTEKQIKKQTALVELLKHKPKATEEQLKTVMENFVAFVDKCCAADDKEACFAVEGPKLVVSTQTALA
Chain of phosphodiesterase I from Crotalus adamanteus venom (J3SEZ3 24-851 limits assumed): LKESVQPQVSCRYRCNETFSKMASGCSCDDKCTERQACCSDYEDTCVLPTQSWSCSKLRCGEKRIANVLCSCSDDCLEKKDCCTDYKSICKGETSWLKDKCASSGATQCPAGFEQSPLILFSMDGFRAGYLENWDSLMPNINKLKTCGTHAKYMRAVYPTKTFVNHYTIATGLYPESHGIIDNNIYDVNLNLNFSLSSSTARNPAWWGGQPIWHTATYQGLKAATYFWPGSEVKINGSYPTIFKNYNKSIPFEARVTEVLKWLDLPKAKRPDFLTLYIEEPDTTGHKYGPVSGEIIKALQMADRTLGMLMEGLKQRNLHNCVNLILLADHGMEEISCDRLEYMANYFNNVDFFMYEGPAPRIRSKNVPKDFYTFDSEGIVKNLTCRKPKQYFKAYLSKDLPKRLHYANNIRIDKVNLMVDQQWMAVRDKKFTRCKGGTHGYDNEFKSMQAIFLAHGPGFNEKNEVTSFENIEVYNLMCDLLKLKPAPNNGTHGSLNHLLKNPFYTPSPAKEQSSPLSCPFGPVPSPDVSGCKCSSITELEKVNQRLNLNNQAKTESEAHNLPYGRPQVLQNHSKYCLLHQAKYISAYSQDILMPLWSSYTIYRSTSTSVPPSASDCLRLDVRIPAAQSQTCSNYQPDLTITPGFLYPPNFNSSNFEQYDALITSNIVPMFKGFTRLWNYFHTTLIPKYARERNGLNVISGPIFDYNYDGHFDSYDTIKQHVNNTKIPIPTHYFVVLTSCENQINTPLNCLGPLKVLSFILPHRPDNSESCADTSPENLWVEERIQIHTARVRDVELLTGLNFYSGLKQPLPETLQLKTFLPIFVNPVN
Chain of Jack bean (Canavalia ensiformis) urease (P07374 whole entry, looked up): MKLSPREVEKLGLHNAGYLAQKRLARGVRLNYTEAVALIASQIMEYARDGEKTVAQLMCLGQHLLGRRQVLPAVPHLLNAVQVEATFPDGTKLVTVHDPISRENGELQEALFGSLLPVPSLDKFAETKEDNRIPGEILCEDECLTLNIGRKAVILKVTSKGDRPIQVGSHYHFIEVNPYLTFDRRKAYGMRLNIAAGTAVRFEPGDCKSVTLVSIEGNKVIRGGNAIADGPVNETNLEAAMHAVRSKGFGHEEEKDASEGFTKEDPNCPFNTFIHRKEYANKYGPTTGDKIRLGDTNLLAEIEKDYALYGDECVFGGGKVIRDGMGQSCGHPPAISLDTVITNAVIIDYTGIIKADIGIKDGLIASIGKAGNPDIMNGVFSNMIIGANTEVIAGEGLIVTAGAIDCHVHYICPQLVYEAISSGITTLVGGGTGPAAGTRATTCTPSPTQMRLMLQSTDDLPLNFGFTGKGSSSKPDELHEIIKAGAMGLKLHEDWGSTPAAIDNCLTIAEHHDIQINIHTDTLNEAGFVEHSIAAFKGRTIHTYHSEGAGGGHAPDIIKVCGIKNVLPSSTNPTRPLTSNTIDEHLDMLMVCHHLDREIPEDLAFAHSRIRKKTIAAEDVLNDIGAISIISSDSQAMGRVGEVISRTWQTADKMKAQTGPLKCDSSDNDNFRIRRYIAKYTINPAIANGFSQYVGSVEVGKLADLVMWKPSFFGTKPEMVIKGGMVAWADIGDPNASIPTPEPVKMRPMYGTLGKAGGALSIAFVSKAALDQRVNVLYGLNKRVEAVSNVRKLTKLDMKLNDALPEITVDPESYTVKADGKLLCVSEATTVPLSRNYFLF
T1 sequence (C7FF04 1-392 limits assumed): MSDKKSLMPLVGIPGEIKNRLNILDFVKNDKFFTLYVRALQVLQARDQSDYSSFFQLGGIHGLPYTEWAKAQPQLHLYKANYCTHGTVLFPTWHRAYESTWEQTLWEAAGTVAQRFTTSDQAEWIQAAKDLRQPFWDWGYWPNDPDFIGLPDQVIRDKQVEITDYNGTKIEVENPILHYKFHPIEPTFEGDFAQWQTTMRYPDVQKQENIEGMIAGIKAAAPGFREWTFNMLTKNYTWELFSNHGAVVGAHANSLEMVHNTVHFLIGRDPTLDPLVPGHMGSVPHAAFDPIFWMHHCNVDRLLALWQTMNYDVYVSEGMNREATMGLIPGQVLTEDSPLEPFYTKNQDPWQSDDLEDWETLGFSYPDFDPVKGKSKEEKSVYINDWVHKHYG
Protocol for mushroom tyrosinase: According to this method, the tested compounds (10 µL) was carefully transfer into a 96-well microplate, mixed with 10 µL mushroom tyrosinase and buffer solution 60 µL. After incubation, 20 µL of 3,4-dihydroxy-l-phenylalanine (L-DOPA) in phosphate buffer was blended, and some amount of dopachrome was added into the reaction mixture. The effect was checked by spectrophotometry at 450 nm with (OD480) (optical density, OD). EZ-Fit software was used to measure the IC50 values in µM. The % inhibition was calculated by using following formula. Percent inhibition=100−OD test well/OD control×100

As usually defined, the IC50 is the concentration that inhibits the measured activity by half. On to `C[C@@H]1O[C@@H](OC[C@H]2O[C@@H](Oc3c(-c4ccc(O)c(O)c4)oc4cc(O)cc(O)c4c3=O)[C@H](O)[C@@H](O)[C@@H]2O)[C@H](O)[C@H](O)[C@H]1O` [rutin, Rutin, reference compound], for which, in data set [1], the IC50 was 295 ± 3.14 µM.
Take `COc1c(O)cc2oc(-c3ccc(O)c(O)c3)c(O)c(=O)c2c1O` [compound 2, 2-(3,4-dihydroxyphenyl)-3,5,7-trihydroxy-6-methoxy-4H-chromen-4-one]: the IC50 at mushroom tyrosinase is 74.8 ± 1.79 µM; in data set [2], 95.2 ± 4.14 µM; in data set [1], 244.8 ± 1.79 µM; in data set [3], 19 ± 2.43 µM.
Take `COc1cc(-c2oc3cc(O)c(OC)c(O)c3c(=O)c2O)ccc1O` [compound 1, 3,5,7-trihydroxy-2-(4-hydroxy-3-methoxyphenyl)-6-methoxy-4H-chromen-4-one]: the half-inhibitory concentration (IC50) at mushroom tyrosinase worked out at 48.7 ± 2.19 µM; in data set [2], 148.7 ± 1.09 µM; in data set [3], 15.3 ± 2.13 µM. For the same compound, the “IC50 ± S.E. (antiglycation)” value in data set [1] was “inactive”.
As for `O=C(O)CN(CCN(CC(=O)O)CC(=O)O)CC(=O)O` [EDTA, reference compound], the half-inhibitory concentration (IC50) in data set [2] (table head prints no unit, read-out: IC50 ± S.E.M. (phosphodiesterase)) was found to be 265 ± 2.24 µM.

These data come from article PMC8820783, “In vitro and in silico studies on clinically important enzymes inhibitory activities of flavonoids isolated from Euphorbia pulcherrima” (Annals of Medicine, 2022).
